This is an account of results in publication PMC3330111, “Computational Design of a PDZ Domain Peptide Inhibitor that Rescues CFTR Activity” (PLoS Computational Biology, 2012).

Entries after “also recorded” stand apart in the source; their conditions may differ. Ends that are not written are not given here. Bounds are passed on as bounds.

Assay [1] deals with T1, CAL PDZ domain (Homo sapiens, UniProt Q9HD26). The assay is described as follows: fluorescence polarization (FP) competition binding. Conditions: for Ki: FP competition, compared with best previously known hexamer (iCAL35), read-out: Experimental Ki, mark †. From the text: The inhibitor dissociation constants of top- and poorly-ranked peptide sequences from the [drawing 176] CAL-CFTR design were experimentally determined. As a control, the best known peptide hexamer was also retested. The corresponding N-terminally acetylated peptides were purchased from NEO BioScience (Cambridge, MA) and the [drawing 177] values for the peptides were detected using fluorescence polarization (FP), using the method previously described in [59]. […] Each peptide inhibitor was serially diluted and the protein-peptide mixture was added to each dilution. Finally, the amount of competitive inhibition was tracked using residual fluorescence polarization at temperatures between [drawing 178] . Each [drawing 179] value is reported as an average of three FP experiments conducted on separate days along with the corresponding standard deviation.

Assay [2] concerns ΔF508-CFTR chloride flux. In words: Ussing chamber chloride flux in CFBE-ΔF cells. The assay is classed as cell-based, human. Conditions: polarized CFBE-ΔF monolayers, 3.5 hour incubation; for improvement in chloride secretion with respect to control peptide kCAL31: peptide delivered with BioPORTER, change in short circuit current on CFTR-specific inhibitor after amiloride, forskolin, genistein. The protocol: Ussing chamber experiments were performed as described previously. Polarized monolayers of patient-derived bronchial epithelial cells, CFBE- [drawing 180] F cells (a generous gift of Dr. J.P. Clancy, [63]), were maintained in MEM with 2 mM l-glutamine, 10% fetal bovine serum, 50 units/mL penicillin, [drawing 181] streptomycin, [drawing 182] puromycin, [drawing 183] plasmocin, and [drawing 184] amphotericin B. Cells were grown at [drawing 185] in 5% [drawing 186] . Twenty four hours before treatment the cells were moved to MEM with only penicillin and streptomycin. Peptides were dissolved in DMSO and diluted to [drawing 187] in PBS. Peptide solutions were applied to cells following incubation with BioPORTER delivery reagent (Sigma). […] Following a 3.5 hour incubation with peptide, short circuit currents ( [drawing 188] ) were monitored in Ussing chambers. Following treatment with amiloride, forskolin, and genistein, ΔF508-CFTR chloride flux was measured as the change in [drawing 189] when the CFTR-specific inhibitor, [drawing 190] [64], [65], was applied to the cell monolayer. All measurements were performed at [drawing 191] .

In assay [3] the target is T1, CAL PDZ domain. In words: ProLib profile library SPOT array. In kind it is binding. Particulars: 10 µg/ml His-tagged CAL PDZ domain, anti-His/anti-mouse-HRP detection. The protocol:
After the [drawing 124] predictions were calculated, the binding of C-termini peptides to CAL was also experimentally assessed using an additional SPOT array. The profile library array (ProLib; Fig. S3 in Text S1) was designed based on the following motif: bbbb [drawing 125] (B = permutation of a defined set of amino acids, b = mixture of 17 amino acids, without C, M and W). The defined set of amino acids were selected based on the HumLib results combined with substitutional analyses with [drawing 126] = A/C/D/E/F/I/K/L/M/N/Q/R/S/T/V/W/Y, [drawing 127] = S/T, [drawing 128] = A/C/D/E/F/I/K/L/M/N/Q/R/S/T/V/W/Y, [drawing 129] = I/L/V (Total number of peptides = 1734+22 internal control sequences). Incubation condition: [drawing 130] His-tagged CAL PDZ domain detected by anti-His (Sigma; 1∶2600)/anti-mouse-HRP (Calbiochem; 1∶2000) antibody sandwich.
Fig. S3. CAL binding data for ProLib spot array. We selected the amino acid prefer-ences of the last 4 C-terminal ligand residues based on their frequency deduced from the 6223-Humlib and the substitutional analysis. […] Incubation condition: 10 µg/ml His-tagged CAL PDZ domain detected by anti-His (Sigma; 1:2600)/anti-mouse-HRP (Calbiochem; 1:2000) antibody sand- […]

Assay [4] has as its system ΔF508-CFTR chloride flux. Conditions: CFBE-ΔF cells, identical experimental conditions; ref [1]; cited from earlier work. From the text:
While this effect is clearly statistically significant ( ), we also wished to assess its magnitude relative to the effect of known rescue compounds. The performance of kCAL01 was benchmarked using polarized human airway epithelial cells derived from a CF patient (stably expressing ΔF508-CFTR; CFBE- F cells). In these cells, CFTR rescue is more challenging than in heterologous cells, but the levels of rescue observed are more likely to reflect the physiological situation. Since CFTR modulation is extremely sensitive to experimental con ...

Turning to Ac-WQKTRL [kCAL03, Ac-WQKTRL], the Ki on CAL PDZ domain [1] is below 14 µM.

As to Ac-WQRTRL [kCAL04, Ac-WQRTRL], the Ki on CAL PDZ domain [1] was below 14 µM.

For Ac-WQVTRV [kCAL01, Ac-WQVTRV], the “improvement in chloride secretion with respect to reference peptide iCAL35” value in the assay on ΔF508-CFTR chloride flux [2] (BioPORTER delivery) was 8%. In the assay with ΔF508-CFTR chloride flux [2], the “improvement in chloride secretion with respect to control peptide kCAL31” value is on record as 12%. Besides, on CAL PDZ domain [1], the “binding efficiency (ratio of inhibitor potency, ΔG, to molecular mass) relative to F*-iCAL36” value is listed as “approximately twice” and the Ki was below 14 µM. Moreover, at CAL PDZ domain [1] (FP), the “improvement in CAL binding affinity compared to iCAL35” value is reported as “six-fold” and the “improvement in CAL binding affinity over HumLib01” value is reported as “six-fold”. Besides, on CAL PDZ domain [1] (versus best known natural ligand ANGLMQTSKL), the “fold higher affinity than any comparable natural ligand” value worked out at 9 fold. Besides, the “fold tighter binding to CAL than the CFTR C-terminus” value at CAL PDZ domain [1] (versus wild-type CFTR sequence TEEEVQDTRL) is 170 fold.

Consider Ac-WQDSGI [kCAL31], for which the “Experimental Ki (inhibitor dissociation constant)” value on CAL PDZ domain [1] (FP competition with labeled peptide, 25 mM Tris-HCl pH 8.5, 150 mM NaCl, 0.1 mg/mL bovine IgG, 0.5 mM Thesit, average of three FP experiments on separate days) is “no binding was detected; also recorded: no CAL binding detected”.

As for WQSTRL [HumLib01], the “CAL binding in ProLib array” value at CAL PDZ domain [3] is “strongest binder”. Further, on CAL PDZ domain [1] (FP), the “improvement in CAL binding affinity compared to iCAL35” value is “only a marginal improvement”.

On to `COc1ccc(Cl)cc1Nc1nc(-c2sc(NC(=O)c3ccccc3)nc2C)cs1` [corr-4a], for which, in the assay with ΔF508-CFTR chloride flux [4], the “increase in ΔF508-CFTR levels” value is given as 15%.

Consider Ac-WQFTRL [kCAL02, Ac-WQFTRL], for which the Ki on CAL PDZ domain [1] was below 14 µM.

As to Ac-WQKTRI [kCAL05, Ac-WQKTRI], the Ki on CAL PDZ domain [1] was below 14 µM.

For WQTSII [iCAL35, reference compound], the “improvement in chloride secretion with respect to control peptide kCAL31” value in the assay with ΔF508-CFTR chloride flux [2] turned out to be 4%.

By Ki is commonly meant the dissociation constant of the complex between target and ligand, obtained from inhibition or displacement.
